In PubChem BioAssay (NCI):
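Compound exposure: 48 hours, 5 concentrations, 96-well plates. At the GI50, growth is halved. TGI denotes the concentration required for complete inhibition of growth.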

Experiments:
Test in all cases: NCI anticancer screen, dose series, 48 h
786-0 renal = tested on: 786-0 renal
A498 renal = tested on: A498 renal
A549 NSCLC = tested on: A549 NSCLC
ACHN renal = tested on: ACHN renal
BT-549 breast = tested on: BT-549 breast
CAKI-1 renal = tested on: CAKI-1 renal
CCRF-CEM leukemia = tested on: CCRF-CEM leukemia
COLO 205 colon = tested on: COLO 205 colon
DU-145 prostate = tested on: DU-145 prostate
EKVX NSCLC = tested on: EKVX NSCLC
HCC-2998 colon = tested on: HCC-2998 colon
HCT-116 colon = tested on: HCT-116 colon
HCT-15 colon = tested on: HCT-15 colon
HL-60(TB) leukemia = tested on: HL-60(TB) leukemia
HOP-62 NSCLC = tested on: HOP-62 NSCLC
HOP-92 NSCLC = tested on: HOP-92 NSCLC
HS 578T breast = tested on: HS 578T breast
HT29 colon = tested on: HT29 colon
IGROV1 ovarian = tested on: IGROV1 ovarian
K-562 leukemia = tested on: K-562 leukemia
KM12 colon = tested on: KM12 colon
LOX IMVI melanoma = tested on: LOX IMVI melanoma
M14 melanoma = tested on: M14 melanoma
MALME-3M melanoma = tested on: MALME-3M melanoma
MCF7 breast = tested on: MCF7 breast
MDA-MB-231 breast = tested on: MDA-MB-231 breast
MDA-MB-435 = tested on: MDA-MB-435
MOLT-4 leukemia = tested on: MOLT-4 leukemia
NCI-H226 lung = tested on: NCI-H226 lung
NCI-H23 lung = tested on: NCI-H23 lung
NCI-H460 lung = tested on: NCI-H460 lung
NCI-H522 lung = tested on: NCI-H522 lung
NCI/ADR-RES ovarian = tested on: NCI/ADR-RES ovarian
OVCAR-3 ovarian = tested on: OVCAR-3 ovarian
OVCAR-4 ovarian = tested on: OVCAR-4 ovarian
OVCAR-5 ovarian = tested on: OVCAR-5 ovarian
OVCAR-8 ovarian = tested on: OVCAR-8 ovarian
PC-3 prostate = tested on: PC-3 prostate
RPMI-8226 leukemia = tested on: RPMI-8226 leukemia
RXF 393 renal = tested on: RXF 393 renal
SF-268 CNS = tested on: SF-268 CNS
SF-295 CNS = tested on: SF-295 CNS
SF-539 CNS = tested on: SF-539 CNS
SK-MEL-2 melanoma = tested on: SK-MEL-2 melanoma
SK-MEL-28 melanoma = tested on: SK-MEL-28 melanoma
SK-MEL-5 melanoma = tested on: SK-MEL-5 melanoma
SK-OV-3 ovarian = tested on: SK-OV-3 ovarian
SN12C renal = tested on: SN12C renal
SNB-19 CNS = tested on: SNB-19 CNS
SNB-75 CNS = tested on: SNB-75 CNS
SR leukemia = tested on: SR leukemia
SW-620 colon = tested on: SW-620 colon
T-47D breast = tested on: T-47D breast
TK-10 renal = tested on: TK-10 renal
U251 CNS = tested on: U251 CNS
UACC-257 melanoma = tested on: UACC-257 melanoma
UACC-62 melanoma = tested on: UACC-62 melanoma
UO-31 renal = tested on: UO-31 renal

With `CN(Cc1cnc2nc(N)nc(N)c2n1)c1ccc(C(=O)NC(CCC(=O)O)C(=O)O)cc1` (stereo not drawn) the GI50 (786-0 renal) was 42.8 nM, the TGI (786-0 renal) was over 100000 nM and the TGI (A498 renal) was over 100000 nM. It also gave a GI50 (A549 NSCLC) of 60.5 nM, a TGI (A549 NSCLC) of over 100000 nM and a GI50 (ACHN renal) of 292 nM. For the same compound, the TGI (ACHN renal) was over 100000 nM, the GI50 (BT-549 breast) was 6510 nM and the TGI (BT-549 breast) was over 100000 nM. It also gave a GI50 (CAKI-1 renal) of 54.4 nM, a TGI (CAKI-1 renal) of over 100000 nM and a GI50 (CCRF-CEM leukemia) of 56 nM. It also gave a TGI (CCRF-CEM leukemia) of over 100000 nM, a TGI (COLO 205 colon) of over 100000 nM and a GI50 (DU-145 prostate) of 204 nM. It also gave a TGI (DU-145 prostate) of over 100000 nM, a GI50 (EKVX NSCLC) of 399 nM and a TGI (EKVX NSCLC) of over 100000 nM. It also gave a GI50 (HCC-2998 colon) of 99.2 nM, a TGI (HCC-2998 colon) of over 100000 nM and a GI50 (HCT-116 colon) of 41.6 nM. It also gave a TGI (HCT-116 colon) of over 100000 nM, a GI50 (HCT-15 colon) of 62.3 nM and a TGI (HCT-15 colon) of over 100000 nM. It also gave a GI50 (HL-60(TB) leukemia) of 74.2 nM, a TGI (HL-60(TB) leukemia) of over 100000 nM and a GI50 (HOP-62 NSCLC) of 394 nM. It also gave a TGI (HOP-62 NSCLC) of over 100000 nM, a TGI (HOP-92 NSCLC) of over 100000 nM and a GI50 (HS 578T breast) of over 100000 nM. It also gave a TGI (HS 578T breast) of over 100000 nM, a GI50 (HT29 colon) of 56.4 nM and a TGI (HT29 colon) of over 100000 nM. For the same compound, the GI50 (IGROV1 ovarian) was 809 nM, the TGI (IGROV1 ovarian) was over 100000 nM and the TGI (K-562 leukemia) was over 100000 nM. The GI50 (KM12 colon) was 87.5 nM, the TGI (KM12 colon) was over 100000 nM and the GI50 (LOX IMVI melanoma) was 37.2 nM. It also gave a TGI (LOX IMVI melanoma) of over 100000 nM, a GI50 (M14 melanoma) of 77.7 nM and a TGI (M14 melanoma) of over 100000 nM. The GI50 (MALME-3M melanoma) was 43000 nM, the TGI (MALME-3M melanoma) was over 100000 nM and the TGI (MCF7 breast) was over 100000 nM. The GI50 (MDA-MB-231 breast) was over 24000 nM, the TGI (MDA-MB-231 breast) was over 100000 nM and the GI50 (MDA-MB-435) was 47.8 nM. It also gave a TGI (MDA-MB-435) of over 100000 nM, a GI50 (MOLT-4 leukemia) of 389 nM and a TGI (MOLT-4 leukemia) of over 100000 nM. For the same compound, the GI50 (NCI-H226 lung) was 505 nM, the TGI (NCI-H226 lung) was over 100000 nM and the GI50 (NCI-H23 lung) was 354 nM. For the same compound, the TGI (NCI-H23 lung) was over 100000 nM, the GI50 (NCI-H460 lung) was 50 nM and the TGI (NCI-H460 lung) was over 100000 nM. For the same compound, the GI50 (NCI-H522 lung) was 721 nM, the TGI (NCI-H522 lung) was over 100000 nM and the GI50 (NCI/ADR-RES ovarian) was 72.2 nM. The TGI (NCI/ADR-RES ovarian) was over 100000 nM, the GI50 (OVCAR-3 ovarian) was 1230 nM and the TGI (OVCAR-3 ovarian) was over 100000 nM. It also gave a GI50 (OVCAR-4 ovarian) of over 100000 nM, a TGI (OVCAR-4 ovarian) of over 100000 nM and a GI50 (OVCAR-5 ovarian) of 668 nM. The TGI (OVCAR-5 ovarian) was over 100000 nM, the GI50 (OVCAR-8 ovarian) was 53.2 nM and the TGI (OVCAR-8 ovarian) was over 100000 nM. For the same compound, the GI50 (PC-3 prostate) was 2560 nM, the TGI (PC-3 prostate) was over 100000 nM and the GI50 (RPMI-8226 leukemia) was 629 nM. For the same compound, the TGI (RPMI-8226 leukemia) was over 100000 nM, the TGI (RXF 393 renal) was over 100000 nM and the GI50 (SF-268 CNS) was 247 nM. For the same compound, the TGI (SF-268 CNS) was over 100000 nM, the GI50 (SF-295 CNS) was 175 nM and the TGI (SF-295 CNS) was 36500 nM. For the same compound, the GI50 (SF-539 CNS) was 234 nM, the TGI (SF-539 CNS) was over 25300 nM and the TGI (SK-MEL-2 melanoma) was over 100000 nM. It also gave a GI50 (SK-MEL-28 melanoma) of 21000 nM, a TGI (SK-MEL-28 melanoma) of over 100000 nM and a GI50 (SK-MEL-5 melanoma) of 443 nM. It also gave a TGI (SK-MEL-5 melanoma) of over 100000 nM, a GI50 (SK-OV-3 ovarian) of 6040 nM and a TGI (SK-OV-3 ovarian) of over 100000 nM. The GI50 (SN12C renal) was 59.5 nM, the TGI (SN12C renal) was over 100000 nM and the TGI (SNB-19 CNS) was over 100000 nM. The GI50 (SNB-75 CNS) was over 100000 nM, the TGI (SNB-75 CNS) was over 100000 nM and the GI50 (SR leukemia) was 50 nM. It also gave a TGI (SR leukemia) of over 100000 nM, a GI50 (SW-620 colon) of 45.6 nM and a TGI (SW-620 colon) of over 100000 nM. It also gave a GI50 (T-47D breast) of over 100000 nM, a TGI (T-47D breast) of over 100000 nM and a GI50 (TK-10 renal) of over 100000 nM. The TGI (TK-10 renal) was over 100000 nM, the GI50 (U251 CNS) was 435 nM and the TGI (U251 CNS) was over 100000 nM. It also gave a GI50 (UACC-257 melanoma) of 955 nM, a TGI (UACC-257 melanoma) of over 100000 nM and a GI50 (UACC-62 melanoma) of 145 nM. For the same compound, the TGI (UACC-62 melanoma) was over 100000 nM, the GI50 (UO-31 renal) was 270 nM and the TGI (UO-31 renal) was over 100000 nM.
